Laboratory results taken from patent publication US20120094964A1, “SULFAMOYL BENZOIC ACID DERIVATIVES AS TRPM8 ANTAGONISTS” (priority 2009, published 2012).
pIC50: −log10 of the molar value.

Molecular target: T1, human TRPM8 (Homo sapiens, UniProt Q7Z2W7)
T1 construct: expressed in transfected cells
Experiment: In Vitro human TRPM8 Functional Assay (intracellular Ca2+, Fluo4, FDSS, menthol activation)
Format: cell-based
Conditions: HEK293 cells stably expressing human TRPM8; activation with L-(-)-Menthol; 11-point dose-response
Method in brief: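 Fluo4-loaded HEK293 cells stably expressing TRPM8 were preincubated with compound for 5 min at room temperature, then stimulated with L-menthol (20 μl of 90 μM stock) while fluorescence was read. IC50 values come from 11-point curves fitted to the mean of duplicate wells.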

T1 sequence (Q7Z2W7 whole entry): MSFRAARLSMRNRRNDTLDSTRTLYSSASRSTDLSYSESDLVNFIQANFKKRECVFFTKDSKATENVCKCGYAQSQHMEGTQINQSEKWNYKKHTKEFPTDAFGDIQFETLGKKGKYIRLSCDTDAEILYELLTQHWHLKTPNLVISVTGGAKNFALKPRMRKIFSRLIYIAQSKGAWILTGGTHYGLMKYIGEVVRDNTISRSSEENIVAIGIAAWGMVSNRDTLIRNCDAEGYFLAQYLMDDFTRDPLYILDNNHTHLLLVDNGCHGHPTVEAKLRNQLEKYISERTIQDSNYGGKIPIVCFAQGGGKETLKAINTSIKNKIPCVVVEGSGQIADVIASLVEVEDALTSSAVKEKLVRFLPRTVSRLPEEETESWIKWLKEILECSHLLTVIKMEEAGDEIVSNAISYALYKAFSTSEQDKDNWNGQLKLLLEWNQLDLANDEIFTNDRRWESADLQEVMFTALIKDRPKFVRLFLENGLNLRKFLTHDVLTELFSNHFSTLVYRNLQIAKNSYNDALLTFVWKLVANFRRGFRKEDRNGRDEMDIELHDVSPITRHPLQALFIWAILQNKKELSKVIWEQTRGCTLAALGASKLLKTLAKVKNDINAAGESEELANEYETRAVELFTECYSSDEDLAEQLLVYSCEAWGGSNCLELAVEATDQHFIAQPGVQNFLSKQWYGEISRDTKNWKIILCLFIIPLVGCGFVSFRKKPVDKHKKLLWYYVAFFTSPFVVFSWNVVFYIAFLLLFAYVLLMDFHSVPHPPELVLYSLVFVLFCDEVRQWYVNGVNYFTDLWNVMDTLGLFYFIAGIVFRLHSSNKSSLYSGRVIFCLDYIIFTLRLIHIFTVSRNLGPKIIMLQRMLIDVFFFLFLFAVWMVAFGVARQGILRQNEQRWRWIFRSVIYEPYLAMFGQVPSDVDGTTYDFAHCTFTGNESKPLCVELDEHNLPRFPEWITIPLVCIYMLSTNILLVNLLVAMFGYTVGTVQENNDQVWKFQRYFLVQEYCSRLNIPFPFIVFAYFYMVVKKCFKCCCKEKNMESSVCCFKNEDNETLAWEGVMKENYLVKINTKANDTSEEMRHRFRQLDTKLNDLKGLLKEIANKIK

pIC50, > 6.00:
O=C(O)c1ccc(S(=O)(=O)N(Cc2ccccc2)c2ncc(C(F)(F)F)cc2Br)cc1 [Example 151, 4-(N-Benzyl-N-(3-bromo-5-(trifluoromethyl)pyridin-2-yl)sulfamoyl)benzoic acid]
Cn1cc(-c2ccc(CN(c3ncc(C(F)(F)F)cc3Cl)S(=O)(=O)c3ccc(C(=O)O)cc3)cc2)cn1 [Example 152, 4-(N-(3-Chloro-5-(trifluoromethyl)pyridin-2-yl)-N-(4-(1-methyl-1H-pyrazol-4-yl)benzyl)sulfamoyl)benzoic acid]
Cc1cc(C(F)(F)F)cnc1N(Cc1ccccc1)S(=O)(=O)c1ccc(C(=O)O)cc1 [Example 153, 4-(N-Benzyl-N-(3-methyl-5-(trifluoromethyl)pyridin-2-yl)sulfamoyl)benzoic acid]
O=C(O)c1ccc(S(=O)(=O)N(Cc2ccc(-c3cccnc3)cc2)c2ncc(C(F)(F)F)cc2Cl)cc1 [Example 154, 4-(N-(3-Chloro-5-(trifluoromethyl)pyridin-2-yl)-N-(4-(pyridin-3-yl)benzyl)sulfamoyl)benzoic acid]
O=C(O)c1ccc(S(=O)(=O)N(Cc2ccc(-c3cccs3)cc2)c2ncc(C(F)(F)F)cc2Cl)cc1 [Example 155, 4-(N-(3-Chloro-5-(trifluoromethyl)pyridin-2-yl)-N-(4-(thiophen-2-yl)benzyl)sulfamoyl)benzoic acid]
O=C(O)c1ccc(S(=O)(=O)N(Cc2ccc(-c3ccncc3)cc2)c2ncc(C(F)(F)F)cc2Cl)cc1 [Example 156]
O=C(O)c1ccc(S(=O)(=O)N(Cc2ccc(-c3ccco3)cc2)c2ncc(C(F)(F)F)cc2Cl)cc1 [Example 157, 4-(N-(3-Chloro-5-(trifluoromethyl)pyridin-2-yl)-N-(4-(furan-2-yl)-benzyl)sulfamoyl)benzoic acid]
O=C(O)c1ccc(S(=O)(=O)N(Cc2ccc(-c3ccccc3)cc2)c2ncc(C(F)(F)F)cc2Cl)cc1 [Example 158, 4-(N-([1,1′-Biphenyl]-4-ylmethyl)-N-(3-chloro-5-(trifluoromethyl)pyridin-2-yl)sulfamoyl)benzoic acid]
O=C(O)c1ccc(S(=O)(=O)N(Cc2ccc(-c3cnco3)cc2)c2ncc(C(F)(F)F)cc2Cl)cc1 [Example 159, 4-(N-(3-Chloro-5-(trifluoromethyl)pyridin-2-yl)-N-(4-(oxazol-5-yl)benzyl)sulfamoyl)benzoic acid]
O=C(O)c1ccc(S(=O)(=O)N(Cc2ccc(C(F)(F)F)nc2)c2ncc(C(F)(F)F)cc2Cl)cc1 [Example 160, 4-(N-(3-Chloro-5-(trifluoromethyl)pyridin-2-yl)-N-((6-(trifluoromethyl)pyridin-3-yl)methyl)sulfamoyl)benzoic acid]
O=C(O)c1ccc(S(=O)(=O)N(Cc2ccc(NC(=O)c3ccccn3)cc2)c2ncc(C(F)(F)F)cc2Cl)cc1 [Example 161, 4-(N-(3-Chloro-5-(trifluoromethyl)pyridin-2-yl)-N-(4-(picolinamido)benzyl)sulfamoyl)benzoic acid]
COc1ccc(-c2ccc(CN(c3ncc(C(F)(F)F)cc3Cl)S(=O)(=O)c3ccc(C(=O)O)cc3)cc2)cn1 [Example 162, 4-(N-(3-chloro-5-(trifluoromethyl)pyridin-2-yl)-N-(4-(6-methoxypyridin-3-yl)-benzyl)sulfamoyl)benzoic acid]
Cc1ccc(-c2ccc(CN(c3ncc(C(F)(F)F)cc3Cl)S(=O)(=O)c3ccc(C(=O)O)cc3)cc2)cn1 [Example 163, 4-(N-(3-chloro-5-(trifluoromethyl)pyridin-2-yl)-N-(4-(6-methylpyridin-3-yl)benzyl)sulfamoyl)benzoic acid]
O=C(O)c1ccc(S(=O)(=O)N(Cc2cccc(-c3ccccc3)c2)c2ncc(C(F)(F)F)cc2Cl)cc1 [Example 164, 4-(N-[(1,1′-Biphenyl]-3-ylmethyl)-N-(3-chloro-5-(trifluoromethyl)pyridin-2-yl)sulfamoyl)benzoic acid]
O=C(O)c1ccc(S(=O)(=O)N(Cc2ccccc2-c2ccccc2)c2ncc(C(F)(F)F)cc2Cl)cc1 [Example 165, 4-(N-([1,1′-Biphenyl]-2-ylmethyl)-N-(3-chloro-5-(trifluoromethyl)pyridin-2-yl)sulfamoyl)benzoic acid]
C[C@H](c1ccccc1)N(c1ncc(C(F)(F)F)cc1Cl)S(=O)(=O)c1ccc(C(=O)O)cc1 [Example 166, (R)-4-(N-(3-Chloro-5-(trifluoromethyl)pyridin-2-yl)-N-(1-phenylethyl)sulfamoyl)benzoic acid]
O=C(O)c1ccc(S(=O)(=O)N(Cc2cccs2)c2ncc(C(F)(F)F)cc2Cl)cc1 [Example 167, 4-(N-(3-Chloro-5-(trifluoromethyl)pyridin-2-yl)-N-(thiophen-2-ylmethyl)sulfamoyl)benzoic acid]
O=C(O)c1ccc(S(=O)(=O)N(Cc2ccc(Oc3ccccc3)cc2)c2ncc(C(F)(F)F)cc2Cl)cc1 [Example 169, 4-(N-(3-Chloro-5-(trifluoromethyl)pyridin-2-yl)-N-(4-phenoxybenzyl)sulfamoyl)benzoic acid]
O=C(O)c1ccc(S(=O)(=O)N(Cc2ccc(-n3cccn3)cc2)c2ncc(C(F)(F)F)cc2Cl)cc1 [Example 170, 4-(N-(4-(1H-Pyrazol-1-yl)benzyl)-N-(3-chloro-5-(trifluoromethyl)pyridin-2-yl)sulfamoyl)benzoic acid]
O=C(O)c1ccc(S(=O)(=O)N(CC2CCC2)c2ncc(C(F)(F)F)cc2Cl)cc1 [Example 171, 4-(N-(3-Chloro-5-(trifluoromethyl)pyridin-2-yl)-N-(cyclobutylmethyl)sulfamoyl)benzoic acid]
O=C(O)c1ccc(S(=O)(=O)N(Cc2ccsc2)c2ncc(C(F)(F)F)cc2Cl)cc1 [Example 172, 4-(N-(3-Chloro-5-(trifluoromethyl)pyridin-2-yl)-N-(thiophen-3-ylmethyl)sulfamoyl)benzoic acid]
N#Cc1ccc(S(=O)(=O)N(Cc2ccccc2)c2ncc(C(F)(F)F)cc2Cl)cc1 [Example 173, N-Benzyl-N-(3-chloro-5-(trifluoromethyl)pyridin-2-yl)-4-cyanobenzenesulfonamide]
O=S(=O)(c1ccc(-c2nn[nH]n2)cc1)N(Cc1ccccc1)c1ncc(C(F)(F)F)cc1Cl [Example 174, N-Benzyl-N-(3-chloro-5-(trifluoromethyl)pyridin-2-yl)-4-(2H-tetrazol-5-yl)benzenesulfonamide]
COc1ccc(S(=O)(=O)N(Cc2ccccc2)c2ncc(C(F)(F)F)cc2Cl)cc1 [Example 175, N-Benzyl-N-(3-chloro-5-(trifluoromethyl)pyridin-2-yl)-4-methoxybenzenesulfonamide]
CS(=O)(=O)NCc1ccc(S(=O)(=O)N(Cc2ccccc2)c2ncc(C(F)(F)F)cc2Cl)cc1 [Example 176, N-Benzyl-N-(3-chloro-5-(trifluoromethyl)pyridin-2-yl)-4-(methylsulfonamidomethyl)benzenesulfonamide]
CC(=O)NCc1ccc(S(=O)(=O)N(Cc2ccccc2)c2ncc(C(F)(F)F)cc2Cl)cc1 [Example 177, N-(4-(N-Benzyl-N-(3-chloro-5-(trifluoromethyl)pyridin-2-yl)sulfamoyl)benzyl)acetamide]
CN(C)S(=O)(=O)NCc1ccc(S(=O)(=O)N(Cc2ccccc2)c2ncc(C(F)(F)F)cc2Cl)cc1 [Example 178, N-Benzyl-N-(3-chloro-5-(trifluoromethyl)pyridin-2-yl)-4-(((N,N-dimethylsulfamoyl)amino)methyl)benzenesulfonamide]
CN(C)C(=O)NCc1ccc(S(=O)(=O)N(Cc2ccccc2)c2ncc(C(F)(F)F)cc2Cl)cc1 [Example 179, N-Benzyl-N-(3-chloro-5-(trifluoromethyl)pyridin-2-yl)-4-((3,3-dimethylureido)methyl)benzene sulfonamide]
O=C(O)c1ccc(S(=O)(=O)N(Cc2ccccc2)c2ncc(Br)cc2Cl)cc1 [Example 180, 4-(N-Benzyl-N-(5-bromo-3-chloropyridin-2-yl)sulfamoyl)benzoic acid]
O=C(O)c1ccc(S(=O)(=O)N(Cc2ccccc2)c2ncc(C(F)(F)F)cc2Cl)c(Cl)c1 [Example 181, 4-(N-Benzyl-N-(3-chloro-5-(trifluoromethyl)pyridin-2-yl)sulfamoyl)-3-chlorobenzoic acid]
O=C(O)c1ccc(S(=O)(=O)N(Cc2ccccc2)c2ncc(-c3ccco3)cc2Cl)cc1 [Example 183, 4-(N-Benzyl-N-(3-chloro-5-(furan-2-yl)pyridin-2-yl)sulfamoyl)benzoic acid]
O=C(O)c1ccc(S(=O)(=O)N(Cc2ccccc2)c2ncc(-c3ccsc3)cc2Cl)cc1 [Example 184, 4-(N-Benzyl-N-(3-chloro-5-(thiophen-3-yl)pyridin-2-yl)sulfamoyl)benzoic acid]
COc1ccccc1-c1cnc(N(Cc2ccccc2)S(=O)(=O)c2ccc(C(=O)O)cc2)c(Cl)c1 [Example 185, 4-(N-Benzyl-N-(3-chloro-5-(2-methoxyphenyl)pyridin-2-yl)sulfamoyl)benzoic acid]
COc1ccc(-c2cnc(N(Cc3ccccc3)S(=O)(=O)c3ccc(C(=O)O)cc3)c(Cl)c2)cc1 [Example 186, 4-(N-Benzyl-N-(3-chloro-5-(4-methoxyphenyl)pyridin-2-yl)sulfamoyl)benzoic acid]
COc1cccc(-c2cnc(N(Cc3ccccc3)S(=O)(=O)c3ccc(C(=O)O)cc3)c(Cl)c2)c1 [Example 187, 4-(N-Benzyl-N-(3-chloro-5-(3-methoxyphenyl)pyridin-2-yl)sulfamoyl)benzoic acid]
O=C(O)c1ccc(S(=O)(=O)N(Cc2ccccc2)c2ncc(C(F)(F)F)cc2Cl)cc1Cl [Example 188, 4-(N-Benzyl-N-(3-chloro-5-(trifluoromethyl)pyridin-2-yl)sulfamoyl)-2-chlorobenzoic acid]
